# Laboratory results taken from US5843941A, “Ras farnesyl transferase inhibitors” (Genentech, Inc., priority 1994, dated 1998).
# Where two headings read alike, the source gives them in different places.
# Legend:
# CAAX farnesyltransferase [1] = target: T1, CAAX farnesyltransferase (Rattus norvegicus, UniProt Q02293+Q04631); assay: In vitro farnesylation of the compound by CAAX farnesyltransferase (substrate test, thin layer chromatography); assay type: biochemical; details: relative to tetrapeptide CVIM, 3.6 μM, 37° C., 30 min; for % farnesylation "B": diastereomer B; for % farnesylation "A": diastereomer A
# T1 sequence (Q02293 whole entry, one chain of several): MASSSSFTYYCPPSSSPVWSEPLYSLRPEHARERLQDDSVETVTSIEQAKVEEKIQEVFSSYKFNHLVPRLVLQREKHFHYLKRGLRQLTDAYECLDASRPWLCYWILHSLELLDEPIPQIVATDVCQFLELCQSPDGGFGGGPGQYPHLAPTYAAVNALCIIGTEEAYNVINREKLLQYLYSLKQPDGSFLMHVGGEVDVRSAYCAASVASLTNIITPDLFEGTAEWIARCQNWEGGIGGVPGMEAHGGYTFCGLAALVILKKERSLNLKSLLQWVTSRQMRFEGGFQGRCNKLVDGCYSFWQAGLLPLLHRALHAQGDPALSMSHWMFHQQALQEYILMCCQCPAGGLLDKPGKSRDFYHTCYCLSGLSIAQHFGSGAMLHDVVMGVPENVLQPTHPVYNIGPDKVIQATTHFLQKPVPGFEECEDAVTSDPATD
# Experimental: After incubation at 37° C. for 30 min, the reaction was stopped by addition of 2 μl of 250 mM EDTA, and the entire reaction mixture was spotted onto a plastic-backed Silica Gel G thin layer sheet (20×20 cm, Brinkmann Inst.) and placed in a tank containing n-propyl alcohol/ammonium hydroxide/water (6:3:1 v/v/v).
# CAAX farnesyltransferase [2] = target: T1, CAAX farnesyltransferase; assay: In vitro inhibition of CAAX farnesyltransferase; assay type: biochemical; design: purified to homogeneity from rat brain homogenates; from tissue; host or cells: rat brain; alternatively recombinant enzyme from a baculovirus expression system; details: Table D
# Method in brief: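 Native or recombinant (baculovirus-infected cells, Q-Sepharose purified) farnesyltransferase incubated 30 min at 37 °C. [3H]farnesyl transfer to p21H-ras measured by SDS/trichloroacetic acid precipitation, nitrocellulose filtration and scintillation counting.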
# [3] = diastereomer A, read-out: EC50 (μM) "A"
# [4] = diastereomer B, read-out: EC50 (μM) "B"
Compound,"% farnesylation ""B"" (CAAX farnesyltransferase [1]) [%]",EC50 (CAAX farnesyltransferase [2]; [3]) [µM],EC50 (CAAX farnesyltransferase [2]; [4]) [µM],"% farnesylation ""A"" (CAAX farnesyltransferase [1]) [%]"
"CN(C(=O)[C@@H](N)CS)C1N=C(c2ccccc2)c2ccccc2N(CC(=O)N[C@@H](Cc2ccccc2)C(=O)O)C1=O (stereo partly drawn) [compound 34, N-[[3-[(2-amino-3-mercapto-1-oxopropyl)methylamino]-2,3-dihydro-2-oxo-5-phenyl-1H-1,4-benzodiazepin-1-yl]acetyl]-L-phenylalanine]",< 1,0.54,0.0005,–
COC(=O)[C@H](CCSC)NC(=O)CN1C(=O)C(N(C)C(=O)[C@@H](N)CS)N=C(c2ccccc2)c2ccccc21 (some centres unmarked) [compound 37],2,0.19,0.05,< 1
"CSCC[C@H](NC(=O)CN1C(=O)C(N(C)C(=O)C2CSC(C)N2)N=C(c2ccccc2)c2ccccc21)C(=O)O (stereo partly drawn) [compound 43, N-[[3-[(2-methylthiazolidine-4-carboxyl)methylamino] -2,3-dihydro-2-oxo-5-phenyl-1H-1,4-benzodiazepin-1-yl]acetyl]-L-methionine]",< 1,0.32,0.006,< 1
"CC(C)C[C@H](NC(=O)CN1C(=O)C(N(C)C(=O)[C@@H](N)CS)N=C(c2ccccc2)c2ccccc21)c1nnn[nH]1 (stereo partly drawn) [compound 46, N-[[3-[(2-amino-3-mercapto-1-oxopropyl)methylamino]-2,3-dihydro-2-oxo-5-phenyl-1H-1,4-benzodiazepin-1-yl]acetyl]-L-leucine tetrazole]",< 1,0.26,0.0016,–
